# Experimental data published in article PMC4701221, “Novel Promising Estrogenic Receptor Modulators: Cytotoxic and Estrogenic Activity of Benzanilides and Dithiobenzanilides” (PLoS ONE, 2016).
# Tested on: MCF-7 cells
# Test: LDH release assay, MCF-7
# Assay type: cell-based, human
# Conditions: 72 h, Fig 2
# Experimental: Cytotoxicity was evaluated by measuring the cell membrane permeability, using a LDH assay kit purchased from Cayman Chemical (Ann Arbor USA). The LDH assay was performed for MCF-7 and MDA-MB-231 cells (seeded at 2×10^4 density). As a positive control cell permeabilization with 1%Triton X-100 was used. The assay was performed 72h after start the incubation. Briefly, the plates were centrifuged at 400 ×g for 5 minutes, and 100 μL of supernatant were transferred from each well to the new 96-well plate and analyzed according to the manufacturer’s protocol. 100 μL of reaction mixture, containing lactic acid, NAD^+, tetrazolium salt and diaphorase, was added to each well. Plates were incubated on an orbital shaker for 30 minutes at room temperature and the absorbance at 490 nm was measured with a plate reader (Biotek Instruments, Elx-800). Results were expressed as a percentage of the total value of the positive control.
smiles,measurement,value
Fc1ccc(NC(=S)c2ccc(NC(=S)c3ccc(F)cc3)cc2)cc1 [Compound 18],"LDH release, MCF-7",relatively low increase
